The numbers were not newly measured in patent US20060024236A1, “Bowel preparation for virtual colonoscopy” (priority 2004, published 2006), which cites them from elsewhere.

SMILES strings stand for the structures.

For series [1] the following is noted: compared with PEG, cleansing before CC, meta-analysis of trials.
For series [2] the following is noted: compared with PEG.

Turning to `O=S(=O)([O-])[O-].[Ba+2]` [barium sulfate], for the setting “oral”, the “opacification of residual colonic fluid” value is “does not adequately opacify”. The “tagging of residual fecal material to distinguish it from true colonic polyps” value (oral, given as part of the colon prep) is “effective”. For the same molecule, the “interference with subsequent CC examination” value (orally administered) is listed as “does not interfere”.

Turning to `O=P(O)(O)O` [NaP, sodium phosphate], in series [1], the “efficacy of colonic cleansing” value was “more efficacious” and the “tolerability of oral cleansing agent” value is “better tolerated”. Further, the “residual colonic fluid at VC” value in series [2] is “significantly less residual colonic fluid”.
